Results taken from US12129265B2, “Therapeutic agents and uses thereof” (Ankh Life Sciences Limited, priority 2020, dated 2024).
pIC50: −log10 of the molar value.

Columns and labels:
Assay in all cases: CellTiter-Glo in vitro cell proliferation assay, Example 8
Format in all cases: cell-based, Human
RPMI-8226 cells = conditions: RPMI-8226, HMM
Method: (§1) Each proliferation assay was carried out as follows. The test cells were plated in growth media using a 384-well microtiter plate at 50 μL volume. The cells were incubated for 24 hours at 37° C. in a humidified incubator. After 24 hours of incubation, the test compounds were added to the test wells in DSMO solvent, at concentrations ranging from 0.0075-100 μM. Control wells received equal volumes of DSMO, without compound. Following drugging, the cells were incubated for 72 hours at 37° C. in a humidified incubator. After this exposure, 100 μL of a 1:1 mixture of sterile water and CellTiter-Glo® reagent (Promega) was added to each well. The plates were then incubated for 60 minutes at room temperature, followed by recording the luminescence value of each well using a luminometer as a measure of cell proliferation.
In this example, different cell lines were subjected to in vitro cell proliferation assays as described in Example 8. In particular, the cell lines are identified in the following Table 17, and the tissue types were: Pancreatic; Endometrial; Triple-Negative Breast Cancer (TNBC); Non-Small-Cell Lung Carcinoma (NSCLC); Ovarian; Renal Cell Carcinoma (RCC); Cervical-Squamous Cell; […] (H&N-Squamous Cell); Germinal Center B Cell-Like Novo Diffuse Large B-Cell Lymphoma (GCB-DLBCL); Activated B-Cell—Diffuse Large B Cell Lymphoma (ABC-DLBCL); Human Myeloma; Human Myeloma Cell Line Lymphocyte-Like; Human Myeloma Cell Line Lymphocyte-Like Myeloma Pleural Effusion Infiltration; Human Multiple Myeloma; Plasma Cell Leukemia/Multiple Myeloma Epstein-Barr Nuclear Antigen-Negative (EBNA-Negative) and to Express mRNA for Proto-Oncogene B-Cell Lymphoma 2 (BCL2); Multiple Myeloma from Peripheral Blood Type IgD Lmabda.

MDA-MB-468 cells = conditions: MDA-MB-468, TNBC; read-out: Mean IC50
Method: (§2) In this Example, in vitro cell proliferation assays were performed using: (1) Human Myeloma tumor cell lines; (2) Human Lymphoma tumor cell lines; (3) Solid Human tumor cell lines; and (4) Parental, Lenalidomide resistant and Bortezomib resistant Jeko-1 Mantle cell Lymphoma tumor cell lines. The compounds tested were three diharmaline compounds, namely the 518B562 (or simply 562), 560, and 561 compounds. In addition, a monoharmaline product designated as 518F014 was also tested. This monoharmaline product had the following structure:
as §1

A2780CP cells = conditions: Ovarian, read-out: Mean IC50
Method: as §2, §1

JIM1 cells = conditions: JIM1, HMCL; read-out: Mean IC50
Method: as §2, §1

DOHH-2 cells = conditions: DoHH-2, GCB-DLBCL; read-out: Mean IC50
Method: as §2, §1

MIA PaCa-2 cells = conditions: MIA PaCa-2, Pancreatic; read-out: Mean IC50
Method: as §2, §1

ASPC-1 cells = conditions: ASPC-1, Pancreatic; read-out: Mean IC50
Method: as §2, §1

OCI-LY3 cells = conditions: OCI-LY3, ABC-DLBCL; read-out: Mean IC50
Method: as §2, §1

FaDu cells = conditions: H&N - SC, read-out: Mean IC50
Method: as §2, §1

HEC-1a cells = conditions: Endometrial, read-out: Mean IC50
Method: as §2, §1

KMS-34 cells = conditions: KMS-34, HMCL-B; read-out: Mean IC50
Method: as §2, §1

A2780 cells = conditions: A2780, Ovarian; read-out: Mean IC50
Method: as §2, §1

L363 cells = conditions: L363, PCL/MM; read-out: Mean IC50
Method: as §2, §1

KMM-1 cells = conditions: KMM-1, HMCL-A; read-out: Mean IC50
Method: as §2, §1

AN3CA cells = conditions: Endometrial, read-out: Mean IC50
Method: as §2, §1

A498 cells = conditions: A498, RCC; read-out: Mean IC50
Method: as §2, §1

MDA-MB-231 cells = conditions: MDA-MB-231, TNBC; read-out: Mean IC50
Method: as §2, §1

MOLP-8 cells = conditions: MOLP-8, MM IgD; read-out: Mean IC50
Method: as §2, §1

H1650 (EGFR mut) cells = conditions: NSCLC, read-out: Mean IC50
Method: as §2, §1

BxPC-3 cells = conditions: BxPC-3, Pancreatic; read-out: Mean IC50
Method: as §2, §1

H1975 (EGFR mut) cells = conditions: NSCLC, read-out: Mean IC50
Method: as §2, §1

HCC70 cells = conditions: HCC70, TNBC; read-out: Mean IC50
Method: as §2, §1

SiHA cells = conditions: Cervical - SC, read-out: Mean IC50
Method: as §2, §1

| SMILES | pIC50 (RPMI-8226 cells) | pIC50 (MDA-MB-468 cells) | pIC50 (A2780CP cells) | pIC50 (JIM1 cells) | pIC50 (DOHH-2 cells) | pIC50 (MIA PaCa-2 cells) | pIC50 (ASPC-1 cells) | pIC50 (OCI-LY3 cells) | pIC50 (FaDu cells) | pIC50 (HEC-1a cells) | pIC50 (KMS-34 cells) | pIC50 (L363 cells) | pIC50 (KMM-1 cells) | pIC50 (AN3CA cells) | pIC50 (A498 cells) | pIC50 (MDA-MB-231 cells) | pIC50 (MOLP-8 cells) | pIC50 (H1650 (EGFR mut) cells) | pIC50 (BxPC-3 cells) | pIC50 (HCC70 cells) | also measured |
| --- | --- | --- | --- | --- | --- | --- | --- | --- | --- | --- | --- | --- | --- | --- | --- | --- | --- | --- | --- | --- | --- |
| COc1ccc2c3c([nH]c2c1)C(CC(CC1=NCCc2c1[nH]c1cc(OC)ccc21)c1ccc(OC)c(Oc2ccccc2)c1)=NCC3 [compound 10] | 5.40 | 4.94 | 4.53 | 4.70 | 5.56 | 4.93 | 4.62 | 5.12 | 4.30 | 4.05 | 5.31 | 4.45 | 4.96 | 4.50 | 4.10 | 4.36 | 5.08 | 4.88 | 4.56 | 4.30 | pIC50 (A2780 cells): 4.19; pIC50 (H1975 (EGFR mut) cells): 4.19 |
| COc1ccc2c3c([nH]c2c1)C(CC(CC1=NCCc2c1[nH]c1cc(OC)ccc21)c1ccc(OC)c(O)c1Br)=NCC3 [compound 13] | 5.04 | 4.90 | 4.63 | 4.94 | 5.19 | 4.80 | 4.08 | 4.93 | 4.87 | 4.76 | 4.95 | 4.89 | 4.88 | 5.11 | 4.04 | 4.59 | 4.96 | 4.67 | 4.78 | 4.55 | pIC50 (A2780 cells): 4.93; pIC50 (H1975 (EGFR mut) cells): 4.85 |
| COc1ccc2c3c([nH]c2c1)C(CC(CC1=NCCc2c1[nH]c1cc(OC)ccc21)c1cccc(-c2ccccc2)c1)=NCC3 [compound 18] | 4.91 | 4.31 | 4.51 | 4.40 | 5.07 | 4.49 | 4.36 | 4.60 | 4.31 | 4.30 | 4.75 | 4.46 | 4.47 | 4.54 | 4.03 | 4.36 | 4.91 | 4.34 | 4.44 | 4.44 | pIC50 (A2780 cells): 4.58; pIC50 (H1975 (EGFR mut) cells): 4.23 |
| C=C(C)C1CC=C(C(CC2=NCCc3c2[nH]c2cc(OC)ccc32)CC2=NCCc3c2[nH]c2cc(OC)ccc32)CC1 (stereo not drawn) [compound 28] | 5.46 | 5.07 | 5.15 | 5.09 | 5.60 | 5.35 | 5.14 | 5.21 | 5.25 | 4.98 | 5.35 | 5.32 | 5.19 | 5.35 | 4.79 | 4.99 | 5.43 | 4.95 | 5.18 | 4.92 | pIC50 (SiHA cells): 4.88 |
| COc1ccc2c3c([nH]c2c1)C(CC(CC1=NCCc2c1[nH]c1cc(OC)ccc21)c1ccc(C(C)C)cc1)=NCC3 [compound 29] | 5.35 |  | 4.94 | 4.78 | 5.68 | 4.95 | 4.97 | 5.02 | 4.94 |  | 5.36 | 4.94 | 5.11 | 5.09 | 4.37 | 4.86 | 5.23 | 4.86 | 4.94 | 4.40 | pIC50 (A2780 cells): 4.92; pIC50 (SiHA cells): 4.33; pIC50 (H1975 (EGFR mut) cells): 4.87 |
